Measurements: patent US10106834B2, “Methods of diagnosing and treating B cell acute lymphoblastic leukemia” (The General Hospital Corporation, priority 2013, dated 2018)

Test system: integrin α4β1 (VLA-4) on WT and IkE5Δ/Δ pre-B cells
Experiment: Adhesion of adherent pre-B cells to fibronectin-coated plates with peptide blocking
Format: cell-based, mouse
Settings: 400 μg/ml peptide
Description: Adhesion to Integrin Ligands and In Vitro FAK Inhibition Assay. Adhesion assay were performed in non-TC treated plates (BD). The plates were coated with 10 ug/ml fibronectin (FN), collagen (Col.) (Invitrogen) or BSA alone overnight at 4° C. After blocking the plates with 2% BSA for 1 h, equal number of cells were plated and incubated for the indicated time points. At the end of the assay, unbound and bound cells were harvested and enumerated. Percent adhesion was calculated by taking ratio of bound cells over total cells used in each assay.
For peptide mediated blocking of adhesion^55, equal number of cells were pretreated for 45 minutes with either 400 μg/ml G-R-G-D-S-P (SEQ ID NO:1) or the control peptide G-R-G-E-S (SEQ ID NO:2) (American Peptide Company) and plated on FN-coated TC dishes. Cells were enumerated for calculation of percent adhesion and percent inhibition.

Which “binding of pre-B cells to fibronectin” value does the source give for G-R-G-D-S-P [RGD] here?
Its value is “significantly inhibited”.
